One assay addresses T1, 5-HT2A receptor (Homo sapiens, UniProt P28223).
T1 construct: host or cells: HEK293
Put plainly: FLIPR Ca2+ flux functional assay, 5-HT2A. It is filed as cell-based. The following applies: agonist activity, Ca2+ flux, HEK293 cells; for pEC50: read-out: 5-HT2A EC50. How it is done:
Activity at 5-HT2A, 5-HT2B and 5-HT2C receptors was determined using a FLIPR Ca^2+ flux assay at WuXi AppTec Co. Ltd. (Hong Kong) Discovery Biology Unit according to their standard protocols. Briefly, stably transfected cells expressing the receptor of interest (HEK293 for 5-HT2A and 5-HT2C; CHO-K1 for 5-HT2B) were grown and plated in a 384 well plate and incubated at 37° C. and 5% CO2 overnight. A 250 mM stock solution of probenecid in FLIPR calcium assay buffer (10 mL) was freshly prepared and combined with a fluorescent dye (Fluo-4 Direct) to give a final assay concentration of 2.5 mM. Reference compounds were 4-fold serially diluted and the screening compounds were 3-fold serially diluted in 100% DMSO for 10 points using Agilent Bravo, and 750 nL was added to a 384 well compound plate using Echo along with 30 μL assay buffer. The fluorescent dye was then added to the assay plate along with assay buffer to a final volume of […]. The cell plate was incubated for 50 min at 37° C. and 5% CO2 and placed into the FLIPR Tetra along with the compound plate. 10 μL of references and compounds were then transferred from the compound plate into the cell plate and the fluorescent signal was read.
(In general: Calcium flux is commonly read through the fluorescence of an indicator in the cells.)

A further assay addresses T2, 5-HT2C receptor (Homo sapiens, UniProt P28335).
T2 construct: host or cells: HEK293
T2 sequence (P28335 33-458): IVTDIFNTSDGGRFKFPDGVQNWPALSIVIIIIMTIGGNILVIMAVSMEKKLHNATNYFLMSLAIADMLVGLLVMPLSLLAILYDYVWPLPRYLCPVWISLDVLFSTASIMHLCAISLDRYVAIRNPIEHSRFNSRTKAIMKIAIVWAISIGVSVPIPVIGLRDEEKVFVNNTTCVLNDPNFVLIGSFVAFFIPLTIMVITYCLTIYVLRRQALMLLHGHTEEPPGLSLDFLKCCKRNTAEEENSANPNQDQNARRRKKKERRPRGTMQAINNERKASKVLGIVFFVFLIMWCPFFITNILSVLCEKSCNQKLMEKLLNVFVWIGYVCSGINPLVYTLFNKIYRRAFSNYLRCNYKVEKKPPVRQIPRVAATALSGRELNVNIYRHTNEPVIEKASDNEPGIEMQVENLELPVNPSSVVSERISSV
Put plainly: cell-based. The following applies: agonist activity, Ca2+ flux, HEK293 cells; for pEC50: read-out: 5-HT2C EC50.

In another assay the target is T3, 5-HT2B receptor (Homo sapiens, UniProt P41595).
T3 construct: host or cells: CHO-K1
Put plainly: cell-based. The following applies: agonist activity, Ca2+ flux, CHO-K1 cells; for pEC50: read-out: 5-HT2B EC50.

pEC50: −log10 of the molar value. Bounds are passed on as bounds.

T3 sequence (P41595 whole entry): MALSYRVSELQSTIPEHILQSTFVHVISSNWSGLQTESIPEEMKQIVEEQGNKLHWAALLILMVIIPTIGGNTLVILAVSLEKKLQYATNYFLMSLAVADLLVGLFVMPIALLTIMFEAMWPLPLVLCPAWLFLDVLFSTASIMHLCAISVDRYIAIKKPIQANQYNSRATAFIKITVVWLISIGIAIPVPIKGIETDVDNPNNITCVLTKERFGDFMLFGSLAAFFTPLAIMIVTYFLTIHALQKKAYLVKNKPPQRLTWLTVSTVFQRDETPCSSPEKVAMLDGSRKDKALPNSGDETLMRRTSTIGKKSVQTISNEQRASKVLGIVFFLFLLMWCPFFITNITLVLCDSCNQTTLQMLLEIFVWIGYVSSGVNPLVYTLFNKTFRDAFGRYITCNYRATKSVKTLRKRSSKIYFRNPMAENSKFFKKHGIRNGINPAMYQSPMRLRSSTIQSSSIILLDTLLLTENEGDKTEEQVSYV
T1 sequence (P28223 whole entry): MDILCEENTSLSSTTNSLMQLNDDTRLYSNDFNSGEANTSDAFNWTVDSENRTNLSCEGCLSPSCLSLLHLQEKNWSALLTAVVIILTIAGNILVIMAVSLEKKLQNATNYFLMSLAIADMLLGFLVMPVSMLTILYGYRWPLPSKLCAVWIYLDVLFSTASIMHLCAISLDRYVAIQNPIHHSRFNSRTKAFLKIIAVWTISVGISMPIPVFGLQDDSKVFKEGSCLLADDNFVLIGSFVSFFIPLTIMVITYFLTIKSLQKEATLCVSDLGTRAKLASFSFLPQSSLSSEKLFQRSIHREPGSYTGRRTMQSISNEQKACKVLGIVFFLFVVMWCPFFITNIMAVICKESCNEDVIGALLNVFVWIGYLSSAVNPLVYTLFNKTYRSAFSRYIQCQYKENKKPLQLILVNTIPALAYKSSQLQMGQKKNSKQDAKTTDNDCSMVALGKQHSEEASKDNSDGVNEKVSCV

On to `CCN(CC)CCc1c[nH]c2c(C)ccc(O)c12` [Example P-88, 3-(2-(diethylamino)ethyl)-7-methyl-1H-indol-4-ol], for which the Emax (commonly the greatest response seen or fitted, relative to the assay's reference) at 5-HT2A receptor is 61.1%; on 5-HT2C receptor it was 25.4%; at 5-HT2B receptor it was -0.07%. Further, the negative logarithm of the EC50 (pEC50) (in general, the EC50 on a negative log10 scale, so that one unit is a factor of ten) at 5-HT2A receptor was 6.72; on 5-HT2C receptor, 5.89; on 5-HT2B receptor, ≤ 5.00.
Turning to `CCCN(CCC)CCc1c[nH]c2c(C)ccc(O)c12` [Example P-89, 3-(2-(dipropylamino)ethyl)-7-methyl-1H-indol-4-ol], the results for the Emax on 5-HT2A receptor, at 5-HT2C receptor and at 5-HT2B receptor were 118%, 54.7% and 6.63%, respectively. For the same compound, the figures for the pEC50 at 5-HT2A receptor, on 5-HT2C receptor and at 5-HT2B receptor were 7.31, 6.05 and ≤ 5.00, respectively.
`Cc1ccc(O)c2c(CCN(C(C)C)C(C)C)c[nH]c12` [Example P-90, 3-(2-(diisopropylamino)ethyl)-7-methyl-1H-indol-4-ol]: the Emax at 5-HT2A receptor was 95.1%; at 5-HT2C receptor, 50.2%; at 5-HT2B receptor it was 15.7%. The figures for the pEC50 at 5-HT2A receptor, at 5-HT2C receptor and on 5-HT2B receptor were 6.09, 5.00 and ≤ 5.00, respectively.
As to `COc1c(F)ccc2[nH]cc(CCN(C)C)c12` [Example P-91, 2-(5-fluoro-4-methoxy-1H-indol-3-yl)-N,N-dimethylethan-1-amine], the Emax was determined as 74.9% on 5-HT2A receptor, 109% on 5-HT2C receptor and 4.57% at 5-HT2B receptor. In addition, the pEC50 was 8.63 at 5-HT2A receptor, 8.91 on 5-HT2C receptor and < 5.00 at 5-HT2B receptor.
As for `CCN(C)CCc1c[nH]c2ccc(F)c(OC)c12` [Example P-92, N-ethyl-2-(5-fluoro-4-methoxy-1H-indol-3-yl)-N-methylethan-1-amine], the Emax at 5-HT2A receptor came out at 78%; on 5-HT2C receptor it was 75.3%; on 5-HT2B receptor, 25.1%. Moreover, the pEC50 on 5-HT2A receptor was 8.13; at 5-HT2C receptor, 7.75; on 5-HT2B receptor, < 5.00.
Turning to `COc1c(F)ccc2[nH]cc(CCN(C)C(C)C)c12` [Example P-93, N-(2-(5-fluoro-4-methoxy-1H-indol-3-yl)ethyl)-N-methylpropan-2-amine], the Emax at 5-HT2A receptor worked out at 95.3%; on 5-HT2C receptor, 85.1%; on 5-HT2B receptor it was 51.5%. Moreover, the pEC50 is 8.14 at 5-HT2A receptor, 7.35 at 5-HT2C receptor and 7.61 on 5-HT2B receptor.
With `CCN(CC)CCc1c[nH]c2ccc(F)c(OC)c12` [Example P-94, N,N-diethyl-2-(5-fluoro-4-methoxy-1H-indol-3-yl)ethan-1-amine], the Emax at 5-HT2A receptor is 98.1%; on 5-HT2C receptor it was 58%; at 5-HT2B receptor, 47.4%. In addition, the results for the pEC50 at 5-HT2A receptor, on 5-HT2C receptor and at 5-HT2B receptor were 7.95, 6.88 and 7.03, respectively.
For the compound `COc1c(F)ccc2[nH]cc(CCN(C(C)C)C(C)C)c12` [Example P-95, N-(2-(5-fluoro-4-methoxy-1H-indol-3-yl)ethyl)-N-isopropylpropan-2-amine], the Emax at 5-HT2A receptor worked out at 93.2%; on 5-HT2C receptor, 83%; on 5-HT2B receptor, 96.3%. The pEC50 is 7.70 at 5-HT2A receptor, 6.59 at 5-HT2C receptor and 7.67 at 5-HT2B receptor.
Turning to `CCN(C)CCc1c[nH]c2cc(F)cc(OC)c12` [Example P-96, N-ethyl-2-(6-fluoro-4-methoxy-1H-indol-3-yl)-N-methylethan-1-amine], the figures for the Emax at 5-HT2A receptor, at 5-HT2C receptor and on 5-HT2B receptor were 73.6%, 79.6% and 19.6%, respectively. Further, the figures for the pEC50 on 5-HT2A receptor, at 5-HT2C receptor and on 5-HT2B receptor were 8.10, 7.22 and < 5.00, respectively.
As for `COc1cc(F)cc2[nH]cc(CCN(C)C(C)C)c12` [Example P-97, N-(2-(6-fluoro-4-methoxy-1H-indol-3-yl)ethyl)-N-methylpropan-2-amine], the Emax stood at 65.4% at 5-HT2A receptor, 59.8% at 5-HT2C receptor and 14.2% on 5-HT2B receptor. The results for the pEC50 at 5-HT2A receptor, on 5-HT2C receptor and at 5-HT2B receptor were 8.17, 6.47 and < 5.00, respectively.

The record behind these values is patent publication US20250101038A1, “COMPOUNDS” (priority 2021, published 2025).
